Experiment [1] concerns the target T1, Tartrate-resistant acid phosphatase type 5 (Mus musculus) (UniProt Q05117).
T1 sequence (whole entry): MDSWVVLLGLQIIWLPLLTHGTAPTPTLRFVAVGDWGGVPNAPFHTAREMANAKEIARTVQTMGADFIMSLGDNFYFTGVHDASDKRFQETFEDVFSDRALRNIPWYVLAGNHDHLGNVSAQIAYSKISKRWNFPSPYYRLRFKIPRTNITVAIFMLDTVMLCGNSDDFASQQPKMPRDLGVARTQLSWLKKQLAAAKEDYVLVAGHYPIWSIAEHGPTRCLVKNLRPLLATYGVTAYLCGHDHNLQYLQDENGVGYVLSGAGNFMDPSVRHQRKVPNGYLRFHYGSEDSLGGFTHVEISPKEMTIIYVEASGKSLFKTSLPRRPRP
The experiment is described as follows: Inhibition of TRAP activity in RANKL-induced Balb/c mouse RAW264.7 cells at 10 uM after 1 hr by ELISA relative to control. The class given is cell-based. For orientation: ELISA stands for enzyme-linked immunosorbent assay.

The nature of experiment [2]: Antiosteoporotic activity in alpha-MEM-induced C57BL/6 mouse MC3T3-E1 cells assessed as increase in collagen synthesis at 5 uM by Sirius Red-based colorimetric assay relative to control. The class given is functional.
Experiment [3] in a line: Antioxidant activity assessed as trolox equivalent of APPH-induced peroxyl radical scavenging activity at 1 uM measured every 2 mins by ORAC fluorescence assay. It is filed as functional.
Experiment [4] in a line: Antiosteoporotic activity in C57BL/6 mouse MC3T3-E1 cells assessed as increase in mineralization by measuring calcium deposition at 5 uM by Alizarin Red staining assay relative to control. It is filed as functional.
Experiment [5] concerns the target T1, Tartrate-resistant acid phosphatase type 5 (Mus musculus). The experiment is described as follows: Inhibition of TRAP activity in RANKL-induced Balb/c mouse RAW264.7 cells at 1 uM after 1 hr by ELISA relative to control. The class given is cell-based.
The nature of experiment [6]: Antioxidant activity assessed as reduction of Cu2+ to Cu+ at 10 uM. The class given is functional.
The nature of experiment [7]: Antiosteoporotic activity in alpha-MEM-induced C57BL/6 mouse MC3T3-E1 cells assessed as increase in mineralization by measuring calcium deposition at 5 uM by Alizarin Red staining assay relative to control. It is filed as functional.
The nature of experiment [8]: Antioxidant activity assessed as trolox equivalent of APPH-induced peroxyl radical scavenging activity measured every 2 mins by ORAC fluorescence assay. It is filed as functional.
Experiment [9] can be described thus: Antiosteoporotic activity in C57BL/6 mouse MC3T3-E1 cells assessed as increase in collagen synthesis at 5 uM by Sirius Red-based colorimetric assay relative to control. The class given is functional.
The target of experiment [10] is T1, Tartrate-resistant acid phosphatase type 5 (Mus musculus). The experiment is described as follows: Inhibition of TRAP activity in Balb/c mouse RAW264.7 cells at 10 uM after 1 hr by ELISA relative to control. It is filed as cell-based.

For `O=c1c(O[C@@H]2O[C@H](CO)[C@@H](O)[C@H](O)[C@H]2O)c(-c2ccc(O)c(O)c2)oc2cc(O)cc(O)c12` [ISOQUERCETIN], in experiment [1], the TRAP activity (% of control) stood at 82.9%. In addition, the Activity in experiment [2] is 112.49%; in [3], 4.4 µM; in experiment [4], 181.25%; in experiment [6] it was 21.3 µM; in [7], 107.58%; in experiment [8], “Dose-dependent effect”. In [9], the Activity is recorded as 261.95%. In addition, the inhibition in experiment [5] is 76.6%.
Take `Oc1cc(O)c2c(c1)O[C@H](c1ccc(O)c(O)c1)[C@H](O)C2` [(-)-EPICATECHIN]: the TRAP activity (% of control) in [1] is 84%. Further, the Activity in experiment [2] is 105.69%; in experiment [3], 4.49 µM; in experiment [4], 188.57%; in experiment [6], 25.7 µM; in experiment [7], 111.92%; in experiment [8] it was “Dose-dependent effect”. In experiment [9], the Activity came out at 246.13%. Besides, the inhibition in experiment [5] stood at 78.3%.
Turning to `C[C@@H]1O[C@@H](O[C@H]2[C@H](Oc3c(-c4ccc(O)c(O)c4)oc4cc(O)cc(O)c4c3=O)O[C@H](CO)[C@H](O)[C@@H]2O)[C@H](O)[C@H](O)[C@H]1O`, the TRAP activity (% of control) in [1] came out at 128%. Further, the Activity in [2] is 96.59%; in experiment [3], 3.36 µM; in experiment [4] it was 176.44%; in experiment [6] it was 19.4 µM; in [7], 104.72%; in experiment [8], “Dose-dependent effect”. Further, the Activity in experiment [9] worked out at 224.92%. Moreover, the inhibition in experiment [5] was 101%.
Consider `Oc1ccc([C@@]23Oc4cc(O)cc(O)c4[C@@H](c4c(O)cc(O)c5c4O[C@H](c4ccc(O)c(O)c4)[C@H](O)C5)[C@@H]2O3)cc1`, for which the TRAP activity (% of control) in [1] was determined as 85.6%. In addition, the Activity in experiment [2] was 77.16%; in experiment [3], 5.42 µM; in [4] it was 151.36%; in [6], 29.9 µM; in [7], 89.84%; in experiment [8], “Dose-dependent effect”. For the same compound, the Activity in experiment [9] was determined as 179.68%. Further, in [5], the inhibition came out at 78.5%.
Take `Oc1cc(O)c2c(c1)O[C@@]1(c3ccc(O)c(O)c3)O[C@H]1[C@@H]2c1c(O)cc(O)c2c1O[C@H](c1ccc(O)c(O)c1)[C@H](O)C2`: the TRAP activity (% of control) in experiment [1] turned out to be 107%. For the same compound, the Activity in [2] was 103.38%; in experiment [3], 5.22 µM; in [4], 185.08%; in [6] it was 34.7 µM; in experiment [7] it was 109.85%; in experiment [8], “Dose-dependent effect”. In experiment [9], the Activity stood at 240.74%. Besides, in experiment [5], the inhibition is 98%.
`C[C@@H]1O[C@@H](OC[C@H]2O[C@@H](Oc3c(-c4ccc(O)c(O)c4)oc4cc(O)cc(O)c4c3=O)[C@H](O)[C@@H](O)[C@@H]2O)[C@H](O)[C@H](O)[C@H]1O` [RUTIN]: in [1], the TRAP activity (% of control) came out at 71.7%. Further, the Activity in experiment [2] is 100.09%; in experiment [3], 3.78 µM; in experiment [4], 173.94%; in experiment [6], 30.1 µM; in experiment [7] it was 103.24%; in [8], “Dose-dependent effect”. Moreover, the Activity in experiment [9] was 233.08%. For the same compound, the values for the inhibition in experiment [10] and in experiment [5] were 146% and 78%, respectively.

One may read the inhibition as the drop in the measured response relative to a control, in per cent.

Source of the values: ChEMBL document CHEMBL3120100, “Identification and biological evaluation of flavonoids from the fruits of Prunus mume” (2014).
